Tests used:
[1] = target: T1, DKC1(1-514) (Homo sapiens, UniProt O60832); assay: SPR Extract2Chip, cellular biotinylated DKC1(1-514), RuvBL1/RuvBL2 injected; format: binding
T1 construct: The cellular biotinylated His6-DKC1(1-514)-AviTag was immobilized using the approach described in Section 2.5.2; made in house; host or cells: E. coli BL21(DE3), co-expressed with BirA; soluble lysate used without purification
T1 sequence (O60832 1-514): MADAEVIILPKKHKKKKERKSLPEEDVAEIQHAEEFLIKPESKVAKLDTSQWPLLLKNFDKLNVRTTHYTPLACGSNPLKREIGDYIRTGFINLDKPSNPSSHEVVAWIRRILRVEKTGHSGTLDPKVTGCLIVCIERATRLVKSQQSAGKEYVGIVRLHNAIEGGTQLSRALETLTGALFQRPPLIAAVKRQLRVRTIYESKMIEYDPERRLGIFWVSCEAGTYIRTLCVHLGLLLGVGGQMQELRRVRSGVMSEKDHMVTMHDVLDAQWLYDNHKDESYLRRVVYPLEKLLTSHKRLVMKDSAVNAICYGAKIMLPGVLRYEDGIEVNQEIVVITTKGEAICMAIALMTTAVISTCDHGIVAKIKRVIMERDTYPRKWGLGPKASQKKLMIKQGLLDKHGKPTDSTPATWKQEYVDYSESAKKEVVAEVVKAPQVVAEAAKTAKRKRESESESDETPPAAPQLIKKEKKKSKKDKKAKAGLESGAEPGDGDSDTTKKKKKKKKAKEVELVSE
Protocol: The cellular biotinylation of the DKC1(1-514) protein followed the same approach as that described for CypD. DKC1(1-514) was expressed in BL21(DE3) in LB media and induced with 500 µM IPTG overnight at 18 °C. The PD-10 Desalting column was equilibrated with buffer U (50 mM HEPES pH 6.5, 750 mM KCl, 0.5 mM EDTA, and 0.5 mM TCEP).
The cellular biotinylated His6-DKC1(1-514)-AviTag was immobilized using the approach described in Section 2.5.2. The soluble cell lysate was diluted to 15 µg/mL and coupled with 150 and 300 s injection times to reach 130 to 175 RU. […]
All sensorgrams were processed by first subtracting the binding response recorded from the control surface (reference spot, where only the avidin protein is immobilized), followed by subtraction of the buffer blank injection from the reaction spot. All datasets were fitted to a simple 1:1 Langmuir interaction model to determine the kinetic rate constants, and the interaction affinity was additionally calculated at a steady state when applicable. […] The experiments with immobilized purified proteins were performed on a Biacore 4000 (Cytiva, Uppsala, Sweden), and the interaction was evaluated using the provided Biacore 4000 evaluation software, while the experiments with soluble cell lysates on a Biacore T200 (Cytiva, Uppsala, Sweden) used the provided Biacore T200 evaluation software. […]

[2] = target: T2, YAP(2-268):TEAD1(209-436) interaction (Homo sapiens, UniProt P28347); assay: SPR, inhibition of YAP:TEAD1 interaction: TEAD1 pre-incubated with binder, injected over cellular biotinylated YAP(2-268); format: binding; conditions: for Effect on YAP(2-268):TEAD1 interaction compared with TEAD1 apo-form: TEAD1 incubated with saturating concentration (30 µM) of binder
T2 construct: made in house; host or cells: YAP: E. coli BL21 Star (DE3) pRARE2 lysate
T2 sequence (P28347 209-426): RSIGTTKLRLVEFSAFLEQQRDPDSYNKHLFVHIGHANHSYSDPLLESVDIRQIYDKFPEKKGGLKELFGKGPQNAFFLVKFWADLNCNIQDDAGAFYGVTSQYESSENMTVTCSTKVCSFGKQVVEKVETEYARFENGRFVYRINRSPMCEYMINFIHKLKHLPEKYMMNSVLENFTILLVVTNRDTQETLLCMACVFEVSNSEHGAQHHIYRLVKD
Description: The cellular biotinylated YAP(2-268) protein, as well as the biotinylated YAP(61-100) peptide, were immobilized using a similar approach as that described previously. However, neutravidin protein (ThermoFisher Scientific) was used as the selected pre-coated surface on a CM5 Series S sensor chip instead of streptavidin. […] The remaining activated groups were then blocked with ethanolamine-HCl. […] The interaction analysis cycles consisted of 120 s of sample injection followed by 280 s of running buffer flow. The experiment was performed at 15 °C. To ensure that the surface integrity of the cellular biotinylated YAP remained intact and that the interaction kinetic profile with TEAD1 was restored, an additional injection of TEAD1 apo-form was performed at the end of each experiment. All sensorgrams were processed by first subtracting the binding response recorded from the control surface (reference spot, where only the avidin protein is immobilized), followed by subtraction of the buffer blank injection from the reaction spot. All datasets were fitted to a simple 1:1 Langmuir interaction model to determine the kinetic rate constants, and the interaction affinity was additionally calculated at a steady state when applicable. In cases where small molecules were present during the assay, a DMSO solvent correction (1–3%) was applied to account for variations in bulk signal and to achieve high-quality data. The experiments with immobilized purified proteins were performed on a Biacore 4000 (Cytiva, Uppsala, Sweden), and the interaction was evaluated using the provided Biacore 4000 evaluation software, while the experiments with soluble cell lysates on a Biacore T200 (Cytiva, Uppsala, Sweden) used the provided Biacore T200 evaluation software. All SPR experiments were performed in duplicate.

[3] = target: T3, TEAD1 (Homo sapiens, UniProt P28347); assay: Binary complex formation of TEAD1 to TEAD binders, biochemical assays; conditions: data not shown
T3 sequence (P28347 whole entry): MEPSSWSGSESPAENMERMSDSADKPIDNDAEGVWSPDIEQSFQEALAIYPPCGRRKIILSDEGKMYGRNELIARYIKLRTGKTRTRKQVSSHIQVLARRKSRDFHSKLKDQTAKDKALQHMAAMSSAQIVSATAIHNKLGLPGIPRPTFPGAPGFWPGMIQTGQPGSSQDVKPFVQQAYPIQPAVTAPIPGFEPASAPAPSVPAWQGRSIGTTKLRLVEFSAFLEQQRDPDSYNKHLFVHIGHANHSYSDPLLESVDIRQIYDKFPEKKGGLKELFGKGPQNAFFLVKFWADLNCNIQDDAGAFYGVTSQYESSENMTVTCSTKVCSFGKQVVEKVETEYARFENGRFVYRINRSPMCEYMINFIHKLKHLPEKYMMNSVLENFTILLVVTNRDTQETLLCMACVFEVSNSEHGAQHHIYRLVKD

[4] = target: T3, TEAD1; assay: Binary complex formation of TEAD1 to TEAD binders, SPR; format: binding; conditions: data not shown
[5] = target: T4, His6-RuvBL1(1-456)/RuvBL2(1-463) (UniProt Q9Y265 1-456; Q9Y230 1-463); assay: SPR; cellular biotinylated His6-DKC1(1-514)-AviTag captured from soluble cell lysate (130 to 175 RU) on neutravidin-coated CM5 chip; RuvBL1/RuvBL2 complexes injected, 10 concentrations, 2-fold series from 0.05 µM; 20 mM NaKPi pH 7.5, 150 mM NaCl, 5 mM MgCl2, 1 mM DTT, 0.05% Tween 20; 25 °C; 1:1 Langmuir fit; conditions: one partner purified
T4 construct: RuvBL1, residues 1-456; RuvBL2, residues 1-463; also called RuvBL1/RuvBL2; AAA+ ATPases RuvBL1/RuvBL2; not shown: His6, N-terminal, kept
T4 sequence (Q9Y265 whole entry, chain 1 of 2, the tested form may be a part): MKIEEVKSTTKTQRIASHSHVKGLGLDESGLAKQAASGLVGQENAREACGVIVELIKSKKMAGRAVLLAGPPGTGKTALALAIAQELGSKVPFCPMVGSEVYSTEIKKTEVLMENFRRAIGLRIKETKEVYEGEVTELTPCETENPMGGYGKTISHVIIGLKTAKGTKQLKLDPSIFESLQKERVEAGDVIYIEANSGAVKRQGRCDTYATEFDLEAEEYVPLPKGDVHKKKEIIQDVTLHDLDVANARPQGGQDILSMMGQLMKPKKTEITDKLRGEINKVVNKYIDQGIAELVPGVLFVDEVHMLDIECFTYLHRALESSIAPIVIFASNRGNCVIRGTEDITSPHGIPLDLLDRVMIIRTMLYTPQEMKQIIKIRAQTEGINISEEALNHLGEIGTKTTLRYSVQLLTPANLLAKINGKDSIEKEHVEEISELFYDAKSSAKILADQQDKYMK
T4 sequence (Q9Y230 whole entry, chain 2 of 2, the tested form may be a part): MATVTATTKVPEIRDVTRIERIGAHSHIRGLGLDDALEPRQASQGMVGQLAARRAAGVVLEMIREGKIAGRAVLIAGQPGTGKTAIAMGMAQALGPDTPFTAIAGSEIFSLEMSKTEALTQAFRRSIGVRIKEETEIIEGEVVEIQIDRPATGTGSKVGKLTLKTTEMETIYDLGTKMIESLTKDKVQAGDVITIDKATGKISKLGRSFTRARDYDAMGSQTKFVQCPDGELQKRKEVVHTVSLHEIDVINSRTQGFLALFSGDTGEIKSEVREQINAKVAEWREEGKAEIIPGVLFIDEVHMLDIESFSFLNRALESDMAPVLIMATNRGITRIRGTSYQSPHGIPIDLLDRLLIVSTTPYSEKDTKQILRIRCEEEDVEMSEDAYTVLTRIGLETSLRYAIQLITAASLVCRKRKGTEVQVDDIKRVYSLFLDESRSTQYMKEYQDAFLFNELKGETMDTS

[6] = TEAD1 incubated with 30 µM binder 18 h at 30 °C, 15 °C

Nc1ncnc2c1ncn2[C@@H]1O[C@H](CO[P@](=O)(O)O[P@](=O)(O)O[P@@](=O)(O)S)[C@@H](O)[C@H]1O [ATPγS]
Effect on DKC1:RuvBL1/RuvBL2 interaction ([1]; saturating concentrations, data not shown): Identical results

CCCC[C@@H]1NC(=O)[C@H](CCCCN)NC(=O)[C@H](CCCNC(=N)N)NC(=O)[C@H](CC(C)C)NC(=O)[C@@H](NC(=O)[C@H](Cc2cccc(Cl)c2)NC(=O)[C@@H]2CCCN2C(=O)[C@@H](NC(C)=O)C(C)C)CCSSC[C@@H](C(=O)N[C@@H](CCCCN)C(=O)N2CCC[C@H]2C(=O)N2CCC[C@H]2C(=O)N[C@@H](CCC(=O)O)C(N)=O)NC(=O)[C@H](Cc2ccccc2)NC(=O)[C@H](CO)NC(=O)[C@H](C)NC(=O)[C@@H]2CCCN2C1=O [Peptide 17]
Effect on YAP(2-268):TEAD1 interaction compared with TEAD1 apo-form [2]: significantly suppressed the interaction

O=C(CCl)c1ccccc1Nc1cccc(C(F)(F)F)c1 [TED-347]
ka ± SD of YAP(2-268):TEAD1 interaction in presence of binder [2, 6]: 1.2e+06 ± 120000 M⁻¹ s⁻¹ | kd ± SD of YAP(2-268):TEAD1 interaction in presence of binder [2, 6]: 0.34 ± 0.074 s⁻¹ | Effect on YAP(2-268):TEAD1 interaction compared with TEAD1 apo-form [2]: decrease in affinity | IC50 [3]: 340 nM | Kd [4]: 1400 nM

RuvBL1_D302N, RuvBL2_D299N: ATP hydrolysis RuvBL1/RuvBL2 mutant
Interaction with immobilized DKC1(1-514) ([1]; compared with RuvBL1(1-456)/RuvBL2(1-463), partly data not shown): Identical results

B1: Cellular biotinylated H/ACA ribonucleoprotein complex subunit Dyskerin pseudouridine synthase 1, His6-DKC1(1-514)-AviTag (natural protein, UniProt O60832 1-514, looked up)
chain: MADAEVIILPKKHKKKKERKSLPEEDVAEIQHAEEFLIKPESKVAKLDTSQWPLLLKNFDKLNVRTTHYTPLACGSNPLKREIGDYIRTGFINLDKPSNPSSHEVVAWIRRILRVEKTGHSGTLDPKVTGCLIVCIERATRLVKSQQSAGKEYVGIVRLHNAIEGGTQLSRALETLTGALFQRPPLIAAVKRQLRVRTIYESKMIEYDPERRLGIFWVSCEAGTYIRTLCVHLGLLLGVGGQMQELRRVRSGVMSEKDHMVTMHDVLDAQWLYDNHKDESYLRRVVYPLEKLLTSHKRLVMKDSAVNAICYGAKIMLPGVLRYEDGIEVNQEIVVITTKGEAICMAIALMTTAVISTCDHGIVAKIKRVIMERDTYPRKWGLGPKASQKKLMIKQGLLDKHGKPTDSTPATWKQEYVDYSESAKKEVVAEVVKAPQVVAEAAKTAKRKRESESESDETPPAAPQLIKKEKKKSKKDKKAKAGLESGAEPGDGDSDTTKKKKKKKKAKEVELVSE
modifications: biotin on the AviTag (BirA, in the cells)
notes: Dyskerin pseudouridine synthase 1 (DKC1), residues 1-514; Captured from the lysate on a neutravidin-coated CM5 chip by the biotinylated AviTag; also called DCK1(1-514); DCK1(1-541); source: E. coli BL21(DE3), co-expressed with BirA-FLAG and D-biotin, in cleared lysate (desalted, not purified); not shown: His6, N-terminal, kept; AviTag, C-terminal, kept
Kd [5]: 23 nM | koff [5]: 0.015 s⁻¹ | kon [5]: 650000 M⁻¹ s⁻¹

Reference: article PMC10605449 (Biosensors, 2023)
